According to US4195171A, “Derivatives of an antibiotic XK-62-2 and process for the production thereof” (Abbott Laboratories, priority 1975, dated 1980):
Values after ≈ are worked out from the molar mass of the structure shown. Read-outs that look alike come from different tables or passages of the source.

Tests used:
Assay in all cases: Antibacterial spectrum, MIC by agar dilution method
Assay type in all cases: cell-based
[1] = test system: Pseudomonas aeruginosa Z-445; details: Z445, pH 7.2, strain produces 6N-acetyltransferase Type III, read-out: Minimum Inhibitory Concentration
Description: (§1) XK-62-2, 1-N-[L-(-)-α-hydroxy-γ-aminobutyryl] XK-62-2, Compounds (I-1), (I-2), (II-1) and (II-2) against various Gram-negative and Gram-positive bacteria determined by agar dilution method at pH 7.2.
(§2) ^8 produces 6N-acetyltransferase Type III

[2] = test system: Pseudomonas aeruginosa KY Z-444; details: KYZ444, agar dilution, pH 7.2, strain produces 6N-acetyltransferase Type III, read-out: Minimum Inhibitory Concentration
Description: as §1, §2

[3] = test system: Pseudomonas aeruginosa KY 8519
Description: as §1
(§3) ^6 produces neomycinkanamycin phosphotransferase Type I and Type II

[4] = test system: Pseudomonas aeruginosa KY 8512; details: KY8512, pH 7.2, strain produces neomycinkanamycin phosphotransferase Type I and Type II, read-out: Minimum Inhibitory Concentration
Description: as §1, §3

[5] = test system: Pseudomonas aeruginosa KY 8518; details: KY8518, pH 7.2, strain produces neomycinkanamycin phosphotransferase Type I, read-out: Minimum Inhibitory Concentration
Description: as §1
(§4) ^3 produces neomycinkanamycin phosphotransferase Type I

Escherichia coli KY 8320 = details: KY8320, pH 7.2, strain produces neomycinkanamycin phosphotransferase Type I, read-out: Minimum Inhibitory Concentration
Description: as §1, §4

Escherichia coli KY 8349 = details: KY8349, pH 7.2, strain produces neomycinkanamycin phosphotransferase Type I, read-out: Minimum Inhibitory Concentration
Description: as §1, §4

[6] = test system: Staphylococcus aureus Smith; details: pH 7.2, read-out: Minimum Inhibitory Concentration
Description: as §1

Proteus vulgaris 6897 = details: pH 7.2, read-out: Minimum Inhibitory Concentration
Description: as §1

Proteus morganii KY 4298 = details: Morganella morganii, KY4298; agar dilution, pH 7.2; read-out: Minimum Inhibitory Concentration
Description: as §1

Escherichia coli T-2 = details: T2, pH 7.2, read-out: Minimum Inhibitory Concentration
Description: as §1

[7] = test system: bacillus subtilis ATCC 6633; details: ATCC6633, pH 7.2, read-out: Minimum Inhibitory Concentration
Description: as §1

[8] = test system: Pseudomonas aeruginosa BMH 10; details: BMH10, pH 7.2, read-out: Minimum Inhibitory Concentration
Description: as §1

[9] = test system: Klebsiella pneumoniae No. 8045; details: pH 7.2, read-out: Minimum Inhibitory Concentration
Description: as §1

[10] = test system: Salmonella enteritidis G-14; details: Salmonella enterica, pH 7.2, read-out: Minimum Inhibitory Concentration
Description: as §1

[11] = test system: Pseudomonas aeruginosa NC-5
Description: as §1

[12] = test system: Pseudomonas aeruginosa E-2
Description: as §1

Escherichia coli T-5 = details: T5, agar dilution, pH 7.2, read-out: Minimum Inhibitory Concentration
Description: as §1

[13] = test system: Salmonella typhimurium E-9; details: Salmonella enterica, pH 7.2, read-out: Minimum Inhibitory Concentration
Description: as §1

Providencia sp. 164 = details: pH 7.2, strain produces gentamicin acetyltransferase Type II, read-out: Minimum Inhibitory Concentration
Description: as §1
^9 produces gentamicin acetyltransferase Type II

Escherichia coli KY 8321 = details: KY8321, pH 7.2, strain produces gentamicin adenyltransferase and neomycinkanamycin phosphotransferase Type II, read-out: Minimum Inhibitory Concentration
Description: as §1
^5 produces gentamicin adenyltransferase and neomycinkanamycin
phosphotransferase Type II

[14] = test system: Escherichia coli KY Z-338; details: KYZ338, pH 7.2, strain produces gentamicin adenyltransferase, read-out: Minimum Inhibitory Concentration
Description: as §1
(§5) ^4 produces gentamicin adenyltransferase

[15] = test system: Klebsiella pneumoniae Y-60; details: Y60, pH 7.2, strain produces gentamicin adenyltransferase, read-out: Minimum Inhibitory Concentration
Description: as §1, §5

[16] = test system: Klebsiella pneumoniae Y-58; details: Y58, pH 7.2, strain produces gentamicin adenyltransferase, read-out: Minimum Inhibitory Concentration
Description: as §1, §5

[17] = test system: Pseudomonas aeruginosa KY 8511; details: KY8511, pH 7.2, strain produces gentamicin acetyltransferase Type I, read-out: Minimum Inhibitory Concentration
Description: as §1
(§6) ^2 produces gentamicin acetyltransferase Type I

Escherichia coli KY 8348 = details: KY8348, pH 7.2, strain produces gentamicin acetyltransferase Type I, read-out: Minimum Inhibitory Concentration
Description: as §1, §6

[18] = test system: Pseudomonas aeruginosa KY 8510
Description: as §1
(§7) ^1 produces kanamycin acetyltransferase

[19] = test system: Escherichia coli KY Z-343; details: KYZ343, pH 7.2, strain produces kanamycin acetyltransferase, read-out: Minimum Inhibitory Concentration
Description: as §1, §7

[20] = test system: Serratia marcescens POE 1065
Description: as §1, §7

[21] = test system: Pseudomonas aeruginosa KY 8516
Description: as §1, §7

[22] = NC5, agar dilution, pH 7.2, read-out: Minimum Inhibitory Concentration
[23] = E2, agar dilution, pH 7.2, read-out: Minimum Inhibitory Concentration
[24] = KY8510, agar dilution, pH 7.2, strain produces kanamycin acetyltransferase, read-out: Minimum Inhibitory Concentration
[25] = POE1065, agar dilution, pH 7.2, strain produces kanamycin acetyltransferase, read-out: Minimum Inhibitory Concentration
[26] = KY8516, agar dilution, pH 7.2, strain produces kanamycin acetyltransferase, read-out: Minimum Inhibitory Concentration
[27] = KY8519, agar dilution, pH 7.2, strain produces neomycinkanamycin phosphotransferase Type I and Type II, read-out: Minimum Inhibitory Concentration

SMILES	MIC [1]	MIC [2]	MIC [4]	MIC [5]	MIC (Escherichia coli KY 8320)	MIC (Escherichia coli KY 8349)	MIC [6]	MIC (Proteus vulgaris 6897)	MIC (Proteus morganii KY 4298)	MIC (Escherichia coli T-2)	MIC [7]	MIC [8]	MIC [9]	MIC (Escherichia coli T-5)	MIC [13]	MIC (Providencia sp. 164)	MIC (Escherichia coli KY 8321)	MIC [14]	MIC [15]	MIC [16]	other results
CC1(O)COC(OC2C(NC(=O)C(O)CN)CC(N)C(OC3OC(CN)CCC3N)C2O)C(O)C1N (racemic) [Compound I-1, 3"-N, 6'-N-didemethyl-1-N-(DL-α-hydroxy-β-aminopropionyl) XK-62-2]	6.25 µg/mL (≈ 12 µM)	1.56 µg/mL (≈ 2.99 µM)	0.78 µg/mL (≈ 1.49 µM)	0.78 µg/mL (≈ 1.49 µM)	0.78 µg/mL (≈ 1.49 µM)	0.4 µg/mL (≈ 0.765 µM)	0.2 µg/mL (≈ 0.383 µM)	6.25 µg/mL (≈ 12 µM)	1.56 µg/mL (≈ 2.99 µM)	1.56 µg/mL (≈ 2.99 µM)	0.1 µg/mL (≈ 0.191 µM)	0.4 µg/mL (≈ 0.765 µM)	0.4 µg/mL (≈ 0.765 µM)	1.56 µg/mL (≈ 2.99 µM)	0.78 µg/mL (≈ 1.49 µM)	6.25 µg/mL (≈ 12 µM)	1.56 µg/mL (≈ 2.99 µM)	0.78 µg/mL (≈ 1.49 µM)	0.78 µg/mL (≈ 1.49 µM)	0.78 µg/mL (≈ 1.49 µM)	MIC ([3]; KY8519, pH 7.2, read-out: Minimum Inhibitory Concentration): 3.12 µg/mL (≈ 5.97 µM); MIC ([10]; agar dilution): 6.25 µg/mL (≈ 12 µM); MIC [11, 22]: 0.78 µg/mL (≈ 1.49 µM); MIC [12, 23]: 1.56 µg/mL (≈ 2.99 µM); MIC [17]: 0.78 µg/mL (≈ 1.49 µM); MIC (Escherichia coli KY 8348): 0.4 µg/mL (≈ 0.765 µM); MIC [18, 24]: 12.5 µg/mL (≈ 23.9 µM); MIC [19]: 0.4 µg/mL (≈ 0.765 µM); MIC [20, 25]: 50 µg/mL (≈ 95.7 µM); MIC [21, 26]: 50 µg/mL (≈ 95.7 µM)
CNCC1CCC(N)C(OC2C(N)CC(NC(=O)C(O)CCN)C(OC3OCC(C)(O)C(N)C3O)C2O)O1 (single isomer, unassigned) [II-2, 3"-N-demethyl-1-N-[L-(-)-α-hydroxy-γ-aminobutyryl] XK-62-2]	6.25 µg/mL (≈ 11.4 µM)	1.56 µg/mL (≈ 2.83 µM)	1.56 µg/mL (≈ 2.83 µM)	1.56 µg/mL (≈ 2.83 µM)	0.78 µg/mL (≈ 1.42 µM)	0.4 µg/mL (≈ 0.726 µM)	0.4 µg/mL (≈ 0.726 µM)	6.25 µg/mL (≈ 11.4 µM)	1.56 µg/mL (≈ 2.83 µM)	0.78 µg/mL (≈ 1.42 µM)	0.2 µg/mL (≈ 0.363 µM)	0.4 µg/mL (≈ 0.726 µM)	0.78 µg/mL (≈ 1.42 µM)	0.4 µg/mL (≈ 0.726 µM)	0.78 µg/mL (≈ 1.42 µM)	12.5 µg/mL (≈ 22.7 µM)	0.78 µg/mL (≈ 1.42 µM)	0.4 µg/mL (≈ 0.726 µM)	0.78 µg/mL (≈ 1.42 µM)	0.4 µg/mL (≈ 0.726 µM)	MIC [3, 27]: 6.25 µg/mL (≈ 11.4 µM); MIC [10]: 3.12 µg/mL (≈ 5.67 µM); MIC ([11]; NC5, pH 7.2, read-out: Minimum Inhibitory Concentration): 3.12 µg/mL (≈ 5.67 µM); MIC ([12]; E2, pH 7.2, read-out: Minimum Inhibitory Concentration): 3.12 µg/mL (≈ 5.67 µM); MIC [17]: 1.56 µg/mL (≈ 2.83 µM); MIC (Escherichia coli KY 8348): 0.4 µg/mL (≈ 0.726 µM); MIC ([18]; KY8510, pH 7.2, read-out: Minimum Inhibitory Concentration): 3.12 µg/mL (≈ 5.67 µM); MIC [19]: 0.2 µg/mL (≈ 0.363 µM); MIC ([20]; POE1065, pH 7.2, read-out: Minimum Inhibitory Concentration): 3.12 µg/mL (≈ 5.67 µM); MIC ([21]; KY8516, pH 7.2, read-out: Minimum Inhibitory Concentration): 3.12 µg/mL (≈ 5.67 µM)
CNCC1CCC(N)C(OC2C(N)CC(NC(=O)C(O)CN)C(OC3OCC(C)(O)C(NC)C3O)C2O)O1 (racemic) [1-N-(DL-α-hydroxy-β-aminopropionyl) XK-62-2, reference compound]	3.12 µg/mL (≈ 5.67 µM)	1.56 µg/mL (≈ 2.83 µM)	1.56 µg/mL (≈ 2.83 µM)	1.56 µg/mL (≈ 2.83 µM)	0.4 µg/mL (≈ 0.726 µM)	0.1 µg/mL (≈ 0.182 µM)	0.2 µg/mL (≈ 0.363 µM)	12.5 µg/mL (≈ 22.7 µM)	0.78 µg/mL (≈ 1.42 µM)	0.4 µg/mL (≈ 0.726 µM)	0.2 µg/mL (≈ 0.363 µM)	0.4 µg/mL (≈ 0.726 µM)	0.78 µg/mL (≈ 1.42 µM)	0.78 µg/mL (≈ 1.42 µM)	0.4 µg/mL (≈ 0.726 µM)	6.25 µg/mL (≈ 11.4 µM)	0.4 µg/mL (≈ 0.726 µM)	0.2 µg/mL (≈ 0.363 µM)	0.4 µg/mL (≈ 0.726 µM)	0.4 µg/mL (≈ 0.726 µM)	MIC [3, 27]: 6.25 µg/mL (≈ 11.4 µM); MIC ([10]; agar dilution): 6.25 µg/mL (≈ 11.4 µM); MIC [11, 22]: 3.12 µg/mL (≈ 5.67 µM); MIC [12, 23]: 3.12 µg/mL (≈ 5.67 µM); MIC [17]: 1.56 µg/mL (≈ 2.83 µM); MIC (Escherichia coli KY 8348): 0.2 µg/mL (≈ 0.363 µM); MIC [18, 24]: 3.12 µg/mL (≈ 5.67 µM); MIC [19]: 0.2 µg/mL (≈ 0.363 µM); MIC [20, 25]: 0.78 µg/mL (≈ 1.42 µM); MIC [21, 26]: 3.12 µg/mL (≈ 5.67 µM)
